Experimental findings from ChEMBL document CHEMBL5303573, “Mapping human microbiome drug metabolism by gut bacteria and their genes” (Nature, 2019) are described below.

The nature of series [1]: The drug is tested on Bifidobacterium ruminantium strain: fecal isolate for biotransformation. The drug concentrations were measured before and after a 12-h incubation by liquid-chromatography-coupled mass spectrometry (LC–MS). The conditions noted are these: 2 µM.
Series [2] in a line: The drug is tested on Collinsella aerofaciens strain: ATCC25986 for biotransformation. The drug concentrations were measured before and after a 12-h incubation by liquid-chromatography-coupled mass spectrometry (LC–MS). Particulars: 2 µM.
The nature of series [3]: The drug is tested on Alistipes indistinctus strain: DSM22520 for biotransformation. The drug concentrations were measured before and after a 12-h incubation by liquid-chromatography-coupled mass spectrometry (LC–MS). The conditions noted are these: 2 µM.
Series [4] can be described thus: The drug is tested on Bacteroides caccae strain: ATCC43185 for biotransformation. The drug concentrations were measured before and after a 12-h incubation by liquid-chromatography-coupled mass spectrometry (LC–MS). The conditions noted are these: 2 µM.
Series [5] can be described thus: The drug is tested on Bacteroides cellulosilyticus strain: DSM14838 for biotransformation. The drug concentrations were measured before and after a 12-h incubation by liquid-chromatography-coupled mass spectrometry (LC–MS). The conditions noted are these: 2 µM.
Series [6] in a line: The drug is tested on Bacteroides uniformis strain: ATCC8492 for biotransformation. The drug concentrations were measured before and after a 12-h incubation by liquid-chromatography-coupled mass spectrometry (LC–MS). Particulars: 2 µM.
A short description of series [7]: The drug is tested on Odoribacter splanchnicus strain: fecal isolate for biotransformation. The drug concentrations were measured before and after a 12-h incubation by liquid-chromatography-coupled mass spectrometry (LC–MS). Particulars: 2 µM.
Series [8] in a line: The drug is tested on Clostridium asparagiforme strain: DSM15981 for biotransformation. The drug concentrations were measured before and after a 12-h incubation by liquid-chromatography-coupled mass spectrometry (LC–MS). In kind it is ADME. On the set-up: dose 2 uM, timepoint 0 vs 12 hours. Particulars: enterocloster asparagiformis, 2 µM.
Series [9] in a line: The drug is tested on Clostridium sp. strain: fecal isolate for biotransformation. The drug concentrations were measured before and after a 12-h incubation by liquid-chromatography-coupled mass spectrometry (LC–MS). The conditions noted are these: 2 µM.
Series [10] can be described thus: The drug is tested on Clostridium scindens strain: ATCC35704 for biotransformation. The drug concentrations were measured before and after a 12-h incubation by liquid-chromatography-coupled mass spectrometry (LC–MS). Particulars: 2 µM.
Series [11] can be described thus: The drug is tested on Clostridium symbiosum strain: ATCC14940 for biotransformation. The drug concentrations were measured before and after a 12-h incubation by liquid-chromatography-coupled mass spectrometry (LC–MS). The conditions noted are these: 2 µM.
The nature of series [12]: The drug is tested on Eubacterium rectale strain: ATCC33656 for biotransformation. The drug concentrations were measured before and after a 12-h incubation by liquid-chromatography-coupled mass spectrometry (LC–MS). The conditions noted are these: agathobacter rectalis, 2 µM.
The nature of series [13]: The drug is tested on Escherichia coli strain: BW25113 for biotransformation. The drug concentrations were measured before and after a 12-h incubation by liquid-chromatography-coupled mass spectrometry (LC–MS). Particulars: 2 µM.
The conditions of series [14]: bacteroides eggerthii, 12 h, 2 µM.
Description: The drug is tested on Bacteroides eggerthii strain: DSM20697 for biotransformation. The drug concentrations were measured before and after a 12-h incubation by liquid-chromatography-coupled mass spectrometry (LC–MS)
The conditions of series [15]: bacteroides thetaiotaomicron, 12 h, 2 µM.
Description: The drug is tested on Bacteroides thetaiotaomicron strain: 7330 for biotransformation. The drug concentrations were measured before and after a 12-h incubation by liquid-chromatography-coupled mass spectrometry (LC–MS)
For series [16] the following is noted: parabacteroides distasonis, 12 h, 2 µM.
Description: The drug is tested on Parabacteroides distasonis strain: ATCC8503 for biotransformation. The drug concentrations were measured before and after a 12-h incubation by liquid-chromatography-coupled mass spectrometry (LC–MS)
For series [17] the following is noted: parabacteroides johnsonii, 12 h, 2 µM.
Description: The drug is tested on Parabacteroides johnsonii strain: DSM18315 for biotransformation. The drug concentrations were measured before and after a 12-h incubation by liquid-chromatography-coupled mass spectrometry (LC–MS)
The conditions of series [18]: segatella copri, 12 h, 2 µM.
Description: The drug is tested on Prevotella copri strain: DSM18205 for biotransformation. The drug concentrations were measured before and after a 12-h incubation by liquid-chromatography-coupled mass spectrometry (LC–MS)
The nature of series [19]: The drug is tested on Enterococcus faecalis strain: V583 for biotransformation. The drug concentrations were measured before and after a 12-h incubation by liquid-chromatography-coupled mass spectrometry (LC–MS). The conditions noted are these: 2 µM.
Series [20] can be described thus: The drug is tested on Bacteroides finegoldii strain: DSM17565 for biotransformation. The drug concentrations were measured before and after a 12-h incubation by liquid-chromatography-coupled mass spectrometry (LC–MS). Particulars: 2 µM.

With `Cc1cc2c(cc1S(N)(=O)=O)S(=O)(=O)CCC2`, the “Bacterial Biotransformation” value in series [1], in series [2], in [3], in series [4], in series [5] and in series [6] was “Compound NOT metabolized” throughout. Further, the “Bacterial Biotransformation” value in series [7], in series [8], in series [9], in [10], in [11] and in series [12] was “Compound NOT metabolized” in each case. The “Bacterial Biotransformation” value in [13], in series [14], in series [15], in [16], in [17] and in series [18] was “Compound NOT metabolized” each time.
On to `CN1CCN(C(=O)O[C@H]2c3nccnc3C(=O)N2c2ccc(Cl)cn2)CC1` [ESZOPICLONE], for which the “Bacterial Biotransformation” value is on record as “Compound NOT metabolized” in series [1]; “Compound metabolized” in series [2]; “Compound NOT metabolized” in series [3]; “Compound NOT metabolized” in [4]; “Compound metabolized” in series [5]; “Compound NOT metabolized” in [6]. In addition, the “Bacterial Biotransformation” value in [7] is “Compound metabolized”; in [8], “Compound NOT metabolized”; in [9], “Compound metabolized”; in series [10], “Compound NOT metabolized”; in [11], “Compound NOT metabolized”; in series [19], “Compound NOT metabolized”. Also, the “Bacterial Biotransformation” value in series [12] was “Compound NOT metabolized”; in series [13], “Compound NOT metabolized”; in series [14], “Compound NOT metabolized”; in series [15], “Compound NOT metabolized”; in series [16], “Compound NOT metabolized”; in [17] it was “Compound metabolized”.
Consider `O=C1[C@H](CC[C@H](O)c2ccc(F)cc2)[C@@H](c2ccc(O)cc2)N1c1ccc(F)cc1` [EZETIMIBE], for which the “Bacterial Biotransformation” value is recorded as “Compound NOT metabolized” in [1]; “Compound NOT metabolized” in [2]; “Compound NOT metabolized” in series [3]; “Compound NOT metabolized” in [5]; “Compound NOT metabolized” in [20]; “Compound metabolized” in series [6]. Also, the “Bacterial Biotransformation” value in series [7], in series [8], in series [9], in series [10], in series [11] and in series [19] was “Compound NOT metabolized” throughout. Also, the “Bacterial Biotransformation” value in series [12], in series [13], in series [14], in series [15], in series [16] and in series [17] was “Compound NOT metabolized” throughout. Also, in series [18], the “Bacterial Biotransformation” value is listed as “Compound NOT metabolized”.
For the compound `COCCCC/C(=N\OCCN)c1ccc(C(F)(F)F)cc1.O=C(O)/C=C\C(=O)O` [FLUVOXAMINE MALEATE], the “Bacterial Biotransformation” value in [1] is listed as “Compound metabolized”; in series [2], “Compound NOT metabolized”; in series [3], “Compound NOT metabolized”; in series [4], “Compound NOT metabolized”; in [5], “Compound NOT metabolized”; in [20] it was “Compound NOT metabolized”. In addition, the “Bacterial Biotransformation” value is reported as “Compound NOT metabolized” in [6]; “Compound NOT metabolized” in series [8]; “Compound metabolized” in series [9]; “Compound NOT metabolized” in series [10]; “Compound NOT metabolized” in series [11]; “Compound NOT metabolized” in series [19]. Besides, the “Bacterial Biotransformation” value was “Compound NOT metabolized” in series [12]; “Compound NOT metabolized” in series [13]; “Compound NOT metabolized” in series [14]; “Compound metabolized” in series [15]; “Compound NOT metabolized” in series [17].
On to `Cc1ccc(S(=O)(=O)NC(=O)NN2CC3CCCC3C2)cc1` (stereo unspecified) [GLICLAZIDE], for which the “Bacterial Biotransformation” value in series [1], in series [2], in series [3], in series [4], in series [5] and in [20] was “Compound NOT metabolized” in each case. Also, the “Bacterial Biotransformation” value in [7], in series [8], in [9], in [10], in series [11] and in series [19] was “Compound NOT metabolized” throughout. For the same compound, the “Bacterial Biotransformation” value in series [12], in series [13], in series [14], in [15], in [16] and in series [17] was “Compound NOT metabolized” each time. Moreover, the “Bacterial Biotransformation” value in series [18] is listed as “Compound NOT metabolized”.
Turning to `CCc1nn(CCCN2CCN(c3cccc(Cl)c3)CC2)c(=O)n1CCOc1ccccc1` [NEFAZODONE], the “Bacterial Biotransformation” value in [1], in series [2], in series [3], in [4], in series [5] and in [7] was “Compound NOT metabolized” each time. Further, the “Bacterial Biotransformation” value in series [8], in series [9], in [10], in series [11], in series [19] and in [12] was “Compound NOT metabolized” in each case. The “Bacterial Biotransformation” value in series [13], in series [14], in series [15], in series [16], in [17] and in series [18] was “Compound NOT metabolized” in each case.
Take `C#C[C@]1(OC(C)=O)CC[C@H]2[C@@H]3CCC4=C/C(=N/O)CC[C@@H]4[C@H]3CC[C@@]21CC` [NORGESTIMATE]: the “Bacterial Biotransformation” value in series [1] is “Compound NOT metabolized”; in [2], “Compound NOT metabolized”; in series [3] it was “Compound NOT metabolized”; in series [4], “Compound NOT metabolized”; in series [5], “Compound NOT metabolized”; in [20], “Compound metabolized”. Further, the “Bacterial Biotransformation” value in series [6] was “Compound metabolized”; in [8] it was “Compound NOT metabolized”; in [9] it was “Compound metabolized”; in [10], “Compound NOT metabolized”; in series [19], “Compound NOT metabolized”; in series [12], “Compound metabolized”. The “Bacterial Biotransformation” value in series [13] is recorded as “Compound NOT metabolized”; in [14], “Compound NOT metabolized”; in series [15], “Compound NOT metabolized”; in series [17], “Compound metabolized”; in series [18] it was “Compound NOT metabolized”.
